Experimental data: patent US5359087A, “Bioactive quisqualic acid analogs” (Regents of the University of Minnesota, priority 1993, dated 1994)
Entries after “also recorded” stand apart in the source; their conditions may differ. Like-named read-outs stand apart in the source and are kept apart here.

Tests used:
[1] = system: QUIS effect in hippocampal slices (CA1 region); experiment: Capability to induce, preblock and reverse the QUIS effect in hippocampal slices; type: cell-based, rat (male Sprague-Dawley); conditions: sensitization of slices to depolarization by AP4
Experimental: L-Quisqualic acid analogs 2-5 were tested for their capability to induce, preblock and reverse the QUIS effect by the procedures disclosed in the examples hereinbelow. […] Thus, L-quisqualic acid remains the only compound known to induce the QUIS effect. In addition, none of the analogs were capable of preblocking or reversing the sensitization induced by L-quisqualic acid. […] While the precise details are unknown, an induction mechanism shown in FIG. 2, involving multiple sites of interaction such as this, would explain the apparent strict structural requirements for induction, reversal and preblocking of the QUIS effect.
(§1) Transverse hippocampal slices were obtained from 30-100 day-old male Sprague-Dawley rats. Rats were anesthetized with urethane (1.5 g/kg ip) and then decapitated. The brain was removed and placed in ice-cold preparatory medium comprised of 124 mM NaCl, 3.3 mM KCl, 10 mM MgSO4, 0.5 mM CaCl2, 1.2 mM KH2 PO4, 10 mM glucose, and 26 mM NaHCO3 equilibrated with 95% O2 /5% CO2 (pH 7.4). The hippocampus was then isolated and sliced into 500-μm slices using a Campden Instruments VibroSlice microtome. Slices were submerged in preparatory medium at 28° C. which was aerated with 95% O2 /5% CO2 and incubated for 45 min. Slices were then transferred to recording medium comprised of 124 mM NaCl, 3.3 mM KCl, 2.4 mM MgSO4, 2.5 mM CaCl2, 1.2 mM KH2 PO4, 10 mM glucose, and 26 mM NaHCO3 aerated with 95% O2 /5% CO2 (pH 7.4) and incubated at 28° C. for at least 30 min. prior to use.
(§2) Slices were transferred to a small recording chamber containing the recording medium at 34° C. Initially, the upper surface of the slice was exposed to a humid atmosphere containing 95% O2 /5% CO2. Bipolar stimulation (0.1 ms, 10-40 V, 0.1 Hz) was delivered to the Schaffer collateral axons via a pair of Teflon-coated stainless steel wires (0.003 in.). […] The evoked extracellular synaptic field potentials were observed using a storage oscilloscope, and the peak amplitudes were sampled and recorded with a chart recorder. When a suitable field potential was obtained, the slice was submerged in oxygenated medium (34° C.) and the response allowed to stabilize. Test compounds were dissolved in oxygenated medium and were added and removed using a push/pull device allowing a complete change of medium within 30 sec.
Slices were exposed to L-AP4, L-quisqualic acid and the test compound in the following sequence, which is a modification of the previous method: (1) 200 μM L-AP4, (2) test compound, (3) 200 μM L-AP4, (4) 16 μM L-quisqualic acid, (5) 200 μM L-AP4, (6) test compound, (7) 200 μM L-AP4. […] Full concentration-response curves were determined for the test compound both before and after treatment of slices with L-quisqualic acid. […]

[2] = system: CA1 neurons (rat hippocampal slices); experiment: Inhibition of evoked synaptic field potential of CA1 neurons in hippocampal slices, before and after L-quisqualic acid exposure; type: cell-based, rat (male Sprague-Dawley); conditions: for sensitization: fractional increase in potency after L-quisqualic acid (IC50 before vs after); for stimulatory activity prior to treatment with L-quisqualic acid: prior to treatment of hippocampal slices with L-quisqualic acid; for decrease of IC50 values after exposure of the tissue to L-quisqualic acid: IC50 before vs after L-quisqualic acid; for change in IC50 / sensitization after L-quisqualic acid: hippocampal slices after exposure to L-quisqualic acid
Experimental: The IC50 values for inhibition of the evoked synaptic field potential of CA1 neurons of analogs 2-5 were determined both before and after slices were exposed to L-quisqualic acid. Varying degrees of sensitization were observed as shown by the data on Table 2.
Potencies were determined before and after a 4minute exposure of slices t
16 μM Lquisqualic acid. Sensitization refers to the fractional increas
as §1, §2
Slices were exposed to L-AP4, L-quisqualic acid and the test compound in the following sequence, which is a modification of the previous method: (1) 200 μM L-AP4, (2) test compound, (3) 200 μM L-AP4, (4) 16 μM L-quisqualic acid, (5) 200 μM L-AP4, (6) test compound, (7) 200 μM L-AP4. Slices were washed between each addition of new drug until the peak amplitude of the field potential returned to its pretest level. Full concentration-response curves were determined for the test compound both before and after treatment of slices with L-quisqualic acid. In addition to determining the potency of compounds before and after addition of L-quisqualic acid, this protocol was designed to test for the ability of test compounds to induce the QUIS effect (and thus mimic the effects of L-quisqualic acid) and to test for the "preblocking" and "reversal" effects which have been previously observed only for L-homocysteine sulfinic acid, L-serine O-sulfate, and L-α-aminoadipic acid.
Concentration-response data were obtained by exposing the slice to a concentration of drug which was subthreshold for inhibition of the field potential. Drug concentration was doubled every 4 min until the response had either declined more than 70% or the bath concentration of the drug exceeded 10 mM. […] IC50 values were obtained. by plotting the fractional response remaining at the end of 4 min versus the log of the bath concentration of the drug. The concentration which produced a 50% inhibition of the peak amplitude (IC50) was interpolated from the graph. All reported IC50 values are the mean values for four or more experiments. The results are summarized on Table 2, above.

[3] = system: QUIS effect in CA1 neurons; conditions: cited from earlier work; for reversal of the QUIS effect after it has been induced: CA1 neurons; for blocking (preblocking) of the QUIS effect: brief exposure of CA1 neurons, removed prior to L-quisqualic acid
[4] = system: CA1 neurons (rat hippocampal slices); conditions: data from Ref. 14, cited from earlier work; for IC50: CA1 region; for sensitization: fractional increase in potency
[5] = target: AMPA/Quisqualate Excitatory Amino Acid Receptor; experiment: [3H]AMPA radioligand receptor binding assay; conditions: for % Inhibition of [3H]AMPA binding: compound concentration of 10^-5 M; for activity at the AMPA/quisqualate receptor: [3H]AMPA binding
Text: The assay that was used was a radioligand receptor binding assay using [^3 H]α-amino-3-hydroxy-5-methylisoxazole-4-propionic acid ([^3 H]AMPA) as the radioligand [Murphy et al., Neurochemical Research, 12, 775 (1987)].
^a Percent inhibition of [^3 H]AMPA binding at a compound
concentration of 10^-5 M.

kainate receptor = conditions: cited from earlier work
AMPA receptor = conditions: cited from earlier work
[6] = system: N-acetyl α-linked acidic dipeptidase; conditions: hydrolyzes the brain dipeptide Ac-Asp-Glu-OH; cited from earlier work
[7] = system: Ca^2+ /Cl^- -dependent glutamic acid uptake system; conditions: brain synaptic plasma membrane preparations; cited from earlier work
metabotropic receptor = conditions: cited from earlier work
[8] = system: CA1 neurons in rat hippocampal slices; conditions: cited from earlier work
[9] = Rattus norvegicus, Neuron, 4 min, CA1 region, after 4-minute exposure of slices to 16 μM L-quisqualic acid, read-out: IC50 Values ± SEM after quisqualic acid
[10] = Rattus norvegicus, Neuron, CA1 region of the hippocampus, before exposure to L-quisqualic acid, mean of four or more experiments, read-out: IC50 Values ± SEM before quisqualic acid
[11] = after 4-minute exposure to 16 μM L-quisqualic acid, read-out: IC50 Values after quisqualic acid
[12] = before L-quisqualic acid, read-out: IC50 Values before quisqualic acid

N[C@@H](CN1CC(=O)NC1=O)C(=O)O [Compound 6]
induction of the QUIS effect [1]: did not exhibit the QUIS effect | IC50 [2, 9]: 0.8 ± 0.26 µM | IC50 [2, 10]: 1.4 ± 0.6 µM | IC50 ([2]; Rattus norvegicus, Neuron, CA1 region of the rat hippocampus, read-out: IC50, stimulatory effect on CA1 region of the rat hippocampus): 1.4 ± 0.6 µM | sensitization [2]: 1.7 | stimulatory activity prior to treatment with L-quisqualic acid [2]: high stimulatory activity

N[C@@H](CCS(=O)O)C(=O)O [L-homocysteinesulfinic acid]
reversal of the QUIS effect after it has been induced [3]: capable of reversing the QUIS effect | blocking (preblocking) of the QUIS effect [3]: the QUIS effect can be blocked

N[C@@H](COS(=O)(=O)O)C(=O)O [L-serine O-sulfate]
reversal of the QUIS effect after it has been induced [3]: capable of reversing the QUIS effect | blocking (preblocking) of the QUIS effect [3]: the QUIS effect can be blocked

N[C@@H](CC1=CC(=O)N(CC(=O)O)C1=O)C(=O)O [Compound 4, (S)-2,5-Dihydro-2,5-dioxo-α-amino-1-(carboxymethyl)pyrrole-3-propanoic Acid]
induction of the QUIS effect [1]: do not induce the QUIS effect | decrease of IC50 values after exposure of the tissue to L-quisqualic acid [2]: more than 7 fold | IC50 [2, 9]: 375 ± 75 µM | IC50 [2, 10]: 2900 ± 320 µM | sensitization [2]: 7.7 | change in IC50 / sensitization after L-quisqualic acid [2]: the slices are sensitized to depolarization by these compounds following exposure to L-quisqualic acid; also recorded: first non-phosphorus compounds to which hippocampal slices are known to become sensitized

N[C@H](CCP(=O)(O)O)C(=O)O [D-AP4, D-2-amino-4-phosphonobutanoic acid]
IC50 [4, 11]: 152 µM | IC50 [4, 12]: 2600 µM | sensitization [4]: 17

N[C@@H](CC1=CC(=O)NC1=O)C(=O)O [Compound 2, (S)-2,5-Dihydro-2,5-dioxo-α-amino-1H-pyrrole-3-propanoic Acid]
Ki ([5]; [3H]AMPA radioligand): 0.37 µM | % Inhibition of [3H]AMPA binding [5]: 93.5% | IC50 [2, 9]: 9.5 ± 2.5 µM | IC50 [2, 10]: 21 ± 4.4 µM | sensitization [2]: 2.2 | stimulatory activity prior to treatment with L-quisqualic acid [2]: high stimulatory activity

N[C@@H](Cn1oc(=O)[nH]c1=O)C(=O)O [L-quisqualic acid, L-Quisqualic acid]
affinity for the kainate receptor (kainate receptor): high affinity | affinity for the AMPA receptor (AMPA receptor): high affinity | inhibition of N-acetyl α-linked acidic dipeptidase [6]: inhibits | inhibition of Ca2+/Cl- -dependent glutamic acid uptake system [7]: inhibits | induction of the QUIS effect [1]: only L-quisqualic acid sensitized slices to depolarization by AP4 | affinity for the metabotropic receptor (metabotropic receptor): high affinity | IC50 [4, 11]: 2.9 µM | IC50 [4, 12]: 3.9 µM | sensitization [4]: 1.3 | sensitization of CA1 neurons to depolarization by D- or L-AP4 and related phosphonates [8]: 30-100 fold

CN1C(=O)C=C(C[C@H](N)C(=O)O)C1=O [Compound 3, (S)-2,5-Dihydro-2,5-dioxo-α-amino-1-methylpyrrole-3-propanoic Acid]
induction of the QUIS effect [1]: do not induce the QUIS effect | % Inhibition of [3H]AMPA binding [5]: 1.1% | decrease of IC50 values after exposure of the tissue to L-quisqualic acid [2]: more than 7 fold | IC50 [2, 9]: 6.8 ± 2.3 µM | IC50 [2, 10]: 95 ± 19 µM | sensitization [2]: 14.0 | change in IC50 / sensitization after L-quisqualic acid [2]: the slices are sensitized to depolarization by these compounds following exposure to L-quisqualic acid; also recorded: first non-phosphorus compounds to which hippocampal slices are known to become sensitized

N[C@@H](CC1CC(=O)NC1=O)C(=O)O (mixture of isomers) [Compound 5B, 2,5-Dioxo-α(S)-amino-3(RS)-pyrrolidinepropanoic Acid]
activity at the AMPA/quisqualate receptor [5]: active at the AMPA/quisqualate receptor | IC50 ([2]; CA1 region of the hippocampus, before exposure to L-quisqualic acid, mean of four or more experiments, read-out: IC50 Values ± SEM before quisqualic acid): 9200 ± 1100 µM | IC50 ([2]; CA1 region, after 4-minute exposure of slices to 16 μM L-quisqualic acid, read-out: IC50 Values ± SEM after quisqualic acid): 6800 ± 930 µM | sensitization [2]: 1.3 | change in IC50 / sensitization after L-quisqualic acid [2]: No significant change in IC50 values

N[C@@H](CCP(=O)(O)O)C(=O)O [L-AP4, L-2-amino-4-phosphonobutanoic acid]
IC50 [4, 11]: 55 µM | IC50 [4, 12]: 1800 µM | sensitization [4]: 33

N[C@@H](CCCC(=O)O)C(=O)O [L-α-aminoadipic acid]
reversal of the QUIS effect after it has been induced [3]: capable of reversing the QUIS effect | blocking (preblocking) of the QUIS effect [3]: the QUIS effect can be blocked

N[C@H](Cn1oc(=O)[nH]c1=O)C(=O)O [D-quisqualic acid, reference compound]
IC50 ([2]; Rattus norvegicus, Neuron, 4 min, read-out: IC50 Values ± SEM after quisqualic acid): 10 ± 1.7 µM | IC50 ([2]; Rattus norvegicus, Neuron, read-out: IC50 Values ± SEM before quisqualic acid): 78 ± 8.5 µM | sensitization [2]: 7.5 | change in IC50 / sensitization after L-quisqualic acid [2]: slices become sensitized

N[C@@H](CC1CC(=O)NC1=O)C(=O)O (mixture of isomers) [Compound 5A, 2,5-Dioxo-α(S)-amino-3(RS)-pyrrolidinepropanoic Acid]
activity at the AMPA/quisqualate receptor [5]: active at the AMPA/quisqualate receptor | % Inhibition of [3H]AMPA binding [5]: 55.5% | IC50 [2, 9]: > 10000 µM | IC50 [2, 10]: > 10000 µM | change in IC50 / sensitization after L-quisqualic acid [2]: No significant change in IC50 values
